“Also recorded” adds a separate entry of the source.
What was measured:
[1] = test system: THP-1 macrophages; experiment: Marker expression in MDA-MB-436 tumor cell-educated THP-1 macrophages; format: cell-based, human; details: ADU-S100 10 μM, two days; FIG. 7G
Procedure: Cells were cultured in a humidified incubator under 5% CO2 at 37° C. MDA-MB-436, HCC1937 and THP-1 human cell lines were obtained from ATCC, tested negative for mycoplasma, and authenticated using short tandem repeat analysis (Promega GenePrint 10 System). MDA-MB-436 and HCC1937 breast cancer cells were cultured in RPMI 1640 medium (Gibco) supplemented with 10% heat-inactivated fetal bovine serum (FBS, Gemini) and 100 μg/mL penicillin-streptomycin (Gibco). THP-1 monocytes were cultured in RPMI 1640 with 10% FBS and 0.055 mM 2-mercaptoethanol (Gibco, #21985023). To differentiate THP-1 monocytes to macrophages, cells were treated with 100 nM PMA (Sigma, #P1585) for 48 h, followed by 24 h recovery with PMA-free medium.
For flow cytometry analyses of tumor and TDLN samples, single-cell suspensions were obtained as described above (Tissue Digestion). Cells were stained in cold FACS buffer (PBS containing 0.2% BSA and 5 mM EDTA) with LIVE/DEAD Fixable Aqua Dead Cell Stain (Thermo Fisher) for 30 min on ice, followed by blocking with anti-CD16/32 (BioLegend) for 20 min on ice. […] All data were analyzed using FlowJo software. […]

[2] = test system: BMDMs generated from FVB/NJ mice; experiment: Polarization of mouse BMDMs cultured in PBM / PBM-R conditioned medium; format: cell-based; details: BMDMs in 50% PBM-R-CM; ADU-S100 10 μM or MSA-2 5 ug/ml, two days; FIG. 21B
Procedure: For ex vivo culture of mouse macrophages, bone marrow cells were isolated from FVB/NJ mice and cultured in DMEM containing 10% FBS, 55 μM 2-Mercaptoethanol and 20 ng/ml M-CSF. BMDMs (bone marrow derived macrophages) were harvested on day 7 and further cultured in 2.0 ml control medium (90% DMEM, 10% FBS, 55 μM 2-Mercaptoethanol and 5 ng/ml M-CSF) described above or the medium containing 50% tumor cell conditioned medium for 72 hrs before analysis. For the tumor cell conditioned medium, about 3×10^5 tumor cells were cultured in 6-well plate for 24 hrs and then treated with DMSO or olaparib. After 24 hrs incubation with DMSO or olaparib, the tumor cells were washed twice with PBS and cultured in DMEM containing 10% FBS for 48 hrs. The tumor cell conditioned medium was collected by centrifugation at 1,500 g for 5 min at 4° C. to remove all the debris and cells. For the cytokine blocking experiment, monoclonal antibodies that specific to each cytokine were added to the tumor cell conditioned medium before it was applied to culture macrophages.

[3] = test system: human BMDMs; experiment: Polarization of human BMDMs cultured in CM from ovarian PDXs; format: cell-based; details: STAT3 inhibitor-treated PDXs; FIG. 25D
Procedure: For ex vivo culture of human macrophages, human BMDMs were generated from bone marrow mononuclear cells (BMMs) (CAT #70001) obtained from […] Technologies. Briefly, BMMs were cultured in DMEM containing 10% FBS, 55 μM 2-Mercaptoethanol (CAT #21985023, Thermo Fisher) and 50 ng/ml M-CSF for 5-7 days with media replacement every 3 days to obtain matured macrophages (BMDMs). […] Flow cytometry analysis was preformed to analyze the phenotypes of macrophages for both mouse and human BMDMs.

[4] = test system: PE tumors; experiment: Flow cytometry of immune cells in PE tumors and tumor-drainage lymph nodes; format: in vivo, mouse
Procedure: To obtain single-cell suspension from tumor mass, tumors were excised, minced and dissociated in collagenase buffer (DMEM supplemented with 5% FBS, 10 mM HEPES [Gibco), 100 μg/mL penicillin-streptomycin, 20 μg/mL DNase I [StemCell] and 1× collagenase/hyaluronidase [StemCell]) at 37° C. for 45 min. Tumor-draining lymph nodes were isolated from tumor-bearing mice and were mashed through 70 μm strainer using plunger of a syringe to obtain single-cell suspension.
For FACS staining, tissue cells were first stained with LIVE/DEAD Fixable Aqua Dead Cell Stain (Thermo Fisher) for 30 min on ice, followed by blocking with anti-CD16/32 (BioLegend) for 20 minutes on ice. Afterwards, cells were incubated with antibodies targeting surface biomarkers in FACS buffer for 30 minutes on ice.

[5] = test system: PE tumor cells; experiment: CXCL10 and CCL5 expression in PE tumor cells (RT-PCR); format: cell-based, mouse; details: FIG. 27C
Procedure: (§1) Cultured cells were lysed in 1 mL TRIZOL® reagent supplied with 200 μL chloroform, after which, samples were vortexed vigorously for 15s and incubated at room temperature for 2 to 3 minutes. The samples were then centrifuged at 12000 g for 15 minutes at 4° C., and collected aqueous phase only. […] Relative mRNA levels were calculated using the […]. Mouse Actb and human GAPDH were used as endogenous controls for mouse and human samples, respectively.

[6] = test system: PE tumors; experiment: PE (exon19del/T790M EGFR, Trp53 loss) tumor growth in FVB mice; format: in vivo, mouse; details: mouse, in vivo
[7] = test system: EFGR/ERK signaling pathway
[8] = test system: PC9GR4; experiment: CXCL10 and CCL5 expression in PC9GR4 cells (RT-PCR); format: cell-based, human; details: FIG. 27C
Procedure: as §1

Nc1ncnc2c1ncn2[C@@H]1O[C@@H]2COP(=O)([S-])O[C@@H]3[C@H](O)[C@@H](COP([O-])(=S)O[C@H]2[C@H]1O)O[C@H]3n1cnc2c(N)ncnc21.[Na+].[Na+] (some centres unmarked) [ADU-S100]
CD86 expression [1]: significantly increased
CD163 expression [1]: suppressed
M1/M2 ratio [2]: significantly increased

CC(=O)c1cc2c(o1)C(=O)c1ccccc1C2=O [napabucasion]
M2-like macrophage polarization induced by CM from DF86 and DF118 [3]: partially diminished

C=CC(=O)Nc1cc(Nc2nccc(-c3cn(C)c4ccccc34)n2)c(OC)cc1N(C)CCN(C)C [osimertinib]
T cells or IFNg^+/TNFa^+ T cells in large PE tumors ([4]; large tumors): did not lead to increase
tumor immune microenvironment of large PE tumors ([4]; single-agent treatment, FIG. 30B): did not significantly affect
CD8^+ and CD4^+ T cells in tumor ([4]; small tumors, FIG. 27B): induced the recruitment of CD8^+ and CD4^+ T cells
IFNg-positive CD8^+ and CD4^+ T cells ([4]; small tumors, FIG. 27B): increase
expression of CXCL10 and CCL5 [5]: significantly elevated
PE tumor growth [6]: significantly slowed PE tumor growth; also recorded: tumor regression; also recorded: only modest therapeutic effects
growth of large PE tumors [6]: progressed through osimertinib treatment and presented growth rates comparable to control
therapeutic effect under CD8^+ T cell depletion [6]: significantly mitigated
activation of EFGR/ERK signaling pathway (phosphorylation of EGFR and ERK) [7]: inhibited
expression of CXCL10 and CCL5 [8]: significantly elevated

Reference: patent publication US20250009743A1, “METHODS OF TREATING CANCERS USING STING AGONISTS” (Dana-Farber Cancer Institute, Inc., priority 2021, published 2025)
